Measured values published in ChEMBL document CHEMBL5727547, “Sodium channel modulators” (2020).

Experiments:
[1] = (§1) Automated patch clamp (Inactivation State Block): Test Protocol for Determining the Potency of Compounds on Nav1.2 and Nav1.6 Subtypes of Voltage-Gated Sodium Ion Channels Expressed in Mammalian CellsCell culture procedures: Chinese hamster ovary (CHO) cells were stably transfected with the cDNA sequence of either the human SCN2A or SCN8A genes to create hNav1.2 or hNav1.6 cells respectively. The cell lines were cultured in Ham's F-12 medium supplemented with 10% fetal bovine serum and antibiotics in a tissue incubator at 37° C. under a humidified air/CO2 mixture (95/5 v/v). On the day of the experiment, cells were washed twice with Hank's balanced salt solution, treated with trypsin, and resuspended in fresh culture media at a density of 4−6×10^6 cells in 20 ml. Immediately before placing in the IonWorks Quattro instrument, cells were washed in Hank's balanced salt solution to remove culture medium and re-suspended in 3 ml of Hank's balanced salt solution. Automated patch clamp recordings of cells using the IonWorks Quattro Instrument: The assay used a 384 microwell plate, which enabled 20 compounds to be studied at four different concentrations in quadruplicate as well as allowing a vehicle control group and a positive control group using mexiletine at 8 different concentrations. Cells were added to the wells of the Population Patch Clamp planar electrode using a 48-channel pipettor in a volume of 6 μL, per well. After 5 minutes incubation at ambient temperature with compounds or vehicle, membrane currents were recorded using the patch clamp amplifier. The pulse pattern was repeated twice, before and after compound addition and peak current amplitudes were measured at TP12 to measure Inactivation State Block. Data analysis: Data acquisition and analyses were carried out using the IonWorks Quattro system operation software which uses an algorithm to correct data for leak currents. Concentration-response curves were fitted by non-linear least squares regression allowing calculation of an IC50 value (μM), being the concentration of the compound producing half-maximal inhibition.
[2] = as §1, with “(Tonic” for “(Inactivation State”, “TP11” for “TP12”, “10 Hz Frequency-dependent” for “Inactivation State”
[3] = Automated patch clamp (Tonic Block): Test Protocol for Determining the Potency of Compounds on Nav1.2 and Nav1.6 Subtypes of Voltage-Gated Sodium Ion Channels Expressed in Mammalian CellsCell culture procedures: Chinese hamster ovary (CHO) cells were stably transfected with the cDNA sequence of either the human SCN2A or SCN8A genes to create hNav1.2 or hNav1.6 cells respectively. The cell lines were cultured in Ham's F-12 medium supplemented with 10% fetal bovine serum and antibiotics in a tissue incubator at 37° C. under a humidified air/CO2 mixture (95/5 v/v). On the day of the experiment, cells were washed twice with Hank's balanced salt solution, treated with trypsin, and resuspended in fresh culture media at a density of 4−6×10^6 cells in 20 ml. Immediately before placing in the IonWorks Quattro instrument, cells were washed in Hank's balanced salt solution to remove culture medium and re-suspended in 3 ml of Hank's balanced salt solution. Automated patch clamp recordings of cells using the IonWorks Quattro Instrument: The assay used a 384 microwell plate, which enabled 20 compounds to be studied at four different concentrations in quadruplicate as well as allowing a vehicle control group and a positive control group using mexiletine at 8 different concentrations. […]

Row | Compound | IC50 [1] [µM] | IC50 [2] [µM] | IC50 [3] [µM]
1 | Cc1cccc(C)c1OCCCNCc1ccc(-c2ccccc2)cc1 | > 1000 | > 1000 | –
2 | Cc1cccc(C)c1OCCCNC(c1ccccn1)c1ccccn1 | 0.1 | – | –
3 | Cc1n[nH]c(C)c1OCCCNCc1cccc(-c2cncnc2)c1 | > 10 | > 10 | –
4 | Cc1n[nH]c(C)c1OCCCNC(c1ccccn1)c1ccccn1 | > 10 | > 10 | –
5 | Cc1nn(C)c(C)c1OCCCNCc1cccc(-c2cncnc2)c1 | > 10 | > 10 | –
6 | Cc1cccc(C)c1OCCCNCc1cc(C(C)(C)C)cc(C(C)(C)C)c1 | > 10 | > 10 | –

Now from value to compound:

Row | IC50 [1] [µM] | IC50 [2] [µM] | IC50 [3] [µM] | Compound
7 | > 10 | > 10 | – | Cc1nn(C)c(C)c1OCCCNC(c1ccccn1)c1ccccn1
8 | 2 | 2 | – | Cc1cccc(C)c1OCCCNCc1cccc(C#N)c1
9 | > 10 | > 10 | > 10 | Cc1cccc(C)c1OCCCNCc1cccc(C(F)(F)F)c1
